Like-named read-outs stand apart in the source and are kept apart here.
Assays:
Format in all cases: biochemical
JNK1 = JNK1 (Homo sapiens, UniProt P45983); experiment: Kinase profiling JNK1; conditions: for remaining activity at 100 µM: read-out: residual kinase activity, JNK1
From the text: (§1) Any value less that 25 is considered to be highly significant inhibition.

PDK1 = target: T1, PDK1 (Homo sapiens, UniProt O15530); experiment: Kinase profiling PDK1; conditions: for remaining activity at 100 µM: read-out: residual kinase activity, PDK1
T1 sequence (O15530 1-556): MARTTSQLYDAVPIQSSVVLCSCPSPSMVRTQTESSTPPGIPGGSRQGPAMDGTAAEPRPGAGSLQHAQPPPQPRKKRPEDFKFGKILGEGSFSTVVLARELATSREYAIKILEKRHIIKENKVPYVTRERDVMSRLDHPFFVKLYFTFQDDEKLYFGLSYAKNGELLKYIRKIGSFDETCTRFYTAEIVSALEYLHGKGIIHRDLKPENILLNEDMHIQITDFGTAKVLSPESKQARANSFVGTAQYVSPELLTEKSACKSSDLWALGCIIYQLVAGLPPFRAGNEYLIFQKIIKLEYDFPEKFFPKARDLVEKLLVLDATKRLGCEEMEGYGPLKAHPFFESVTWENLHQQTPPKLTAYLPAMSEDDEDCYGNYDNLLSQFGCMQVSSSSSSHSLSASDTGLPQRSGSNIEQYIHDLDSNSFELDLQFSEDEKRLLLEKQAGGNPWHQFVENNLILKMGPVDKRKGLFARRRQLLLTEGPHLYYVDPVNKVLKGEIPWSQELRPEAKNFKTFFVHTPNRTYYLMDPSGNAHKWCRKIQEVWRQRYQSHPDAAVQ
From the text: as §1

PKBb = PKBb (Homo sapiens, UniProt P31751); experiment: Kinase profiling PKBb; conditions: 100 micromolar inhibitor concentration; 100 is no change
From the text: as §1

S6K1 = S6K1 (Homo sapiens, UniProt P23443); experiment: Kinase profiling S6K1; conditions: for remaining activity at 100 µM: read-out: residual kinase activity, S6K1
From the text: as §1

PRK2 = PRK2 (Homo sapiens, UniProt Q16513); experiment: Kinase profiling PRK2; conditions: for remaining activity at 100 µM: read-out: residual kinase activity, PRK2
From the text: as §1

MSK1 = MSK1 (Homo sapiens, UniProt O75582); experiment: Kinase profiling MSK1; conditions: for remaining activity at 100 µM: read-out: residual kinase activity, MSK1
From the text: as §1

SmMLCK = SmMLCK (Homo sapiens, UniProt Q15746); experiment: Kinase profiling SmMLCK; conditions: for remaining activity at 100 µM: read-out: residual kinase activity, SmMLCK
PAK4 = PAK4 (Homo sapiens, UniProt O96013); experiment: Kinase profiling PAK4; conditions: for remaining activity at 100 µM: read-out: residual kinase activity, PAK4
From the text: as §1

MST2 = target: T2, MST2 (Homo sapiens, UniProt Q13188); experiment: Kinase profiling MST2; conditions: for remaining activity at 100 µM: read-out: residual kinase activity, MST2
T2 sequence (Q13188 1-491): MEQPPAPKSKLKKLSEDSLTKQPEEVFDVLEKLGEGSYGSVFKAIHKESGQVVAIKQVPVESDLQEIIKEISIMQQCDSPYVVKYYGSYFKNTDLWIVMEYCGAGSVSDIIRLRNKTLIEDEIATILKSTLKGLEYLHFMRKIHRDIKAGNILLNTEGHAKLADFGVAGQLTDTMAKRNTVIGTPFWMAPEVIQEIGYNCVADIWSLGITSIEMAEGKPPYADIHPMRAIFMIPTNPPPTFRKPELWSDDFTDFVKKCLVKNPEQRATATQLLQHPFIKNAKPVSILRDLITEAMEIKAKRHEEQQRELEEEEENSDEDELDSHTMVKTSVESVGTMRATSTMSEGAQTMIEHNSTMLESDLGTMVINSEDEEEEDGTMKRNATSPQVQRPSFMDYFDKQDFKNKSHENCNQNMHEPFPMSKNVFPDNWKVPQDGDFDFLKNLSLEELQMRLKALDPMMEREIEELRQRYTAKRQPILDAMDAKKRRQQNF
From the text: as §1

MLK3 = MLK3 (Homo sapiens, UniProt Q16584); experiment: Kinase profiling MLK3; conditions: for remaining activity at 100 µM: read-out: residual kinase activity, MLK3
From the text: as §1

TAK1 = target: T3, TAK1 (Homo sapiens, UniProt O43318); experiment: Kinase profiling TAK1; conditions: for remaining activity at 100 µM: read-out: residual kinase activity, TAK1
T3 sequence (O43318 1-303 limits assumed): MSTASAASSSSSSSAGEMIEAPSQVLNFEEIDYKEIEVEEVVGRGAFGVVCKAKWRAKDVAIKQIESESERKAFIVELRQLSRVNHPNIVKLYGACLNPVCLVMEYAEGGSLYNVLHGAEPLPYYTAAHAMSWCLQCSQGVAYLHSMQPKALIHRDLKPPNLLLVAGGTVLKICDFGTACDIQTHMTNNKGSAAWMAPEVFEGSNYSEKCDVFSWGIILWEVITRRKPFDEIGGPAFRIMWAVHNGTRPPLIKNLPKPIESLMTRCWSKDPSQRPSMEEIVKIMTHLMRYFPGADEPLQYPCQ
T3 sequence (Q15750 437-504 partner limits assumed): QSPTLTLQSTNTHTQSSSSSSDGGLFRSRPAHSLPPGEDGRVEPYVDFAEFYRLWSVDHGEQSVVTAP
From the text: as §1

IRAK4 = target: T4, IRAK4 (Homo sapiens, UniProt Q9NWZ3); experiment: Kinase profiling IRAK4; conditions: for remaining activity at 100 µM: read-out: residual kinase activity, IRAK4
T4 sequence (Q9NWZ3 1-460): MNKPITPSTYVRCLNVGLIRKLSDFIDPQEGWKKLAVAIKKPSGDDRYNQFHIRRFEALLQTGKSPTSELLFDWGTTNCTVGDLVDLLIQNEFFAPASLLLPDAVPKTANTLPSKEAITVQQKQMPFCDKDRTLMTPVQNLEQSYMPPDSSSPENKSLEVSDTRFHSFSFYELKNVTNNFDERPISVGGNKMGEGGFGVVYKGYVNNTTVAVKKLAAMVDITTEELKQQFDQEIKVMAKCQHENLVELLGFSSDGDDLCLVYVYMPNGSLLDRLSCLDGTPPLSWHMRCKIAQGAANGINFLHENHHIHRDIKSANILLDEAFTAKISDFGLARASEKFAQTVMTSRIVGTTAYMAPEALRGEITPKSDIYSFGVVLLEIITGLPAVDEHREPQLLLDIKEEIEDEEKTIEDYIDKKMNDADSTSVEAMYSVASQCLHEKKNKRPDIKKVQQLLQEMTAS
From the text: as §1

SYK = SYK (Homo sapiens, UniProt P43405); experiment: Kinase profiling SYK; conditions: for remaining activity at 100 µM: read-out: residual kinase activity, SYK
From the text: as §1

HER4 = HER4 (Homo sapiens, UniProt Q15303); experiment: Kinase profiling HER4; conditions: for remaining activity at 100 µM: read-out: residual kinase activity, HER4
From the text: as §1

IGF-1R = IGF-1R (Homo sapiens, UniProt P08069); experiment: Kinase profiling IGF-1R; conditions: for remaining activity at 100 µM: read-out: residual kinase activity, IGF-1R
From the text: as §1

[1] = 100 micromolar inhibitor concentration, 100 is no change
[2] = 100 micromolar inhibitor, 100 = no change

PAK4, sequence (O96013 whole entry, species assumed): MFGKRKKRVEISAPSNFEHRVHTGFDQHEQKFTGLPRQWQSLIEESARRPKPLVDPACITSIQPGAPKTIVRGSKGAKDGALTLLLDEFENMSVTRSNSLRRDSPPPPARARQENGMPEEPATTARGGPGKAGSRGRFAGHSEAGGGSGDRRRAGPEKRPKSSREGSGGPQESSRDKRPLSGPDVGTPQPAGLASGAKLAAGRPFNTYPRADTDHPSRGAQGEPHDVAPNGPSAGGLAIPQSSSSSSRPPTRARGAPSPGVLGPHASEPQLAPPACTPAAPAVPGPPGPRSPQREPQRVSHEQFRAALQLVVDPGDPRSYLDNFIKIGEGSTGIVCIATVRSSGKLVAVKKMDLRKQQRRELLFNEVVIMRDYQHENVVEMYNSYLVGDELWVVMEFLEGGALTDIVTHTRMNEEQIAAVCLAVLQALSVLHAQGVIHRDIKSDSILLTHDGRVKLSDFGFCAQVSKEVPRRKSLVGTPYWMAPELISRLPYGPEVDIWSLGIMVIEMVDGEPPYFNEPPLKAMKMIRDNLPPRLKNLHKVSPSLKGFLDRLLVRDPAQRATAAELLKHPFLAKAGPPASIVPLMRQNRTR
PRK2, sequence (Q16513 whole entry, species assumed): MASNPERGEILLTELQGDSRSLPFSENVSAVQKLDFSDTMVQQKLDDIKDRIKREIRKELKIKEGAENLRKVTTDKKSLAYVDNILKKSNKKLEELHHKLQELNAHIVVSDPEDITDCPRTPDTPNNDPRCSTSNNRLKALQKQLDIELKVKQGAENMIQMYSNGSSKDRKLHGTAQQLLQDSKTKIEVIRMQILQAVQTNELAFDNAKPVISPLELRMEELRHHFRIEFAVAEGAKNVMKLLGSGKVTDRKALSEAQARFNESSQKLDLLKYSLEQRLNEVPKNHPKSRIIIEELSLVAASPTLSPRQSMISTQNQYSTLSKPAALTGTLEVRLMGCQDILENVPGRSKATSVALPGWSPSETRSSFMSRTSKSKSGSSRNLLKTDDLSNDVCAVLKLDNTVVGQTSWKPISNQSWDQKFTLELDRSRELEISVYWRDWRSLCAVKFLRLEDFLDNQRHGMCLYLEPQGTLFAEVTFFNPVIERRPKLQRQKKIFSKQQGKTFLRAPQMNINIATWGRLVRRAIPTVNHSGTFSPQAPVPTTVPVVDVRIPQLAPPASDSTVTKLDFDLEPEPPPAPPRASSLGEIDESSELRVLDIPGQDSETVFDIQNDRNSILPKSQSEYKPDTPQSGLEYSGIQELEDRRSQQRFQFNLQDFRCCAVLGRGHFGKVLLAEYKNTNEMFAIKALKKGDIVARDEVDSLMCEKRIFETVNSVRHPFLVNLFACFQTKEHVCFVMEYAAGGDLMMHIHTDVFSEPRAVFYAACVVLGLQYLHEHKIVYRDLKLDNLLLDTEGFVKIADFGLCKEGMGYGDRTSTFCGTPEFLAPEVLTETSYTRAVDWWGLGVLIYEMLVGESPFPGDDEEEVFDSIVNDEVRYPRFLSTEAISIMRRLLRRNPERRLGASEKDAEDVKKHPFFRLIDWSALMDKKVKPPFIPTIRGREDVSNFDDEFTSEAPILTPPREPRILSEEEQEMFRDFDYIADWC
MLK3, sequence (Q16584 whole entry, species assumed): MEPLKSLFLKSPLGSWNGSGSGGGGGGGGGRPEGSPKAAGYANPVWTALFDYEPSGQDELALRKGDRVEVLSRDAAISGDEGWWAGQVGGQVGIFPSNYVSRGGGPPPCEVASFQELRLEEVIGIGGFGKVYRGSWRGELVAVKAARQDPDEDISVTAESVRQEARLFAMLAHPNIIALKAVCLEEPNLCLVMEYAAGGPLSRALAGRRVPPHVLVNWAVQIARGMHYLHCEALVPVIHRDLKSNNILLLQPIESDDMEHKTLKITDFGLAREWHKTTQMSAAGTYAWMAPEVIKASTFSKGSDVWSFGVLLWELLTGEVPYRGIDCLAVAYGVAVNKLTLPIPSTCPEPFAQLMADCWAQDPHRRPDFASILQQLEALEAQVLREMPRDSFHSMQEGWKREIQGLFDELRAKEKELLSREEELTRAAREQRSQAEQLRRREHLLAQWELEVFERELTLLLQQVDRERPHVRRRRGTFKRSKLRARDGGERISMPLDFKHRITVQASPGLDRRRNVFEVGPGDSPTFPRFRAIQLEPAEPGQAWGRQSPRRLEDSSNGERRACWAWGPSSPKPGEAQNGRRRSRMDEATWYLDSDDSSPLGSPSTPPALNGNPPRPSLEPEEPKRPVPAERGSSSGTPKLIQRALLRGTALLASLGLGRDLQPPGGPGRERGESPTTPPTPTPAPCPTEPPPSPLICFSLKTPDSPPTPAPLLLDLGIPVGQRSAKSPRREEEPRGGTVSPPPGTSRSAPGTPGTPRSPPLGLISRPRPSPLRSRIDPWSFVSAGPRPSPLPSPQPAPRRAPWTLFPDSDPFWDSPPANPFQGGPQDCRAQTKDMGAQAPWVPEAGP
JNK1, sequence (P45983 whole entry, species assumed): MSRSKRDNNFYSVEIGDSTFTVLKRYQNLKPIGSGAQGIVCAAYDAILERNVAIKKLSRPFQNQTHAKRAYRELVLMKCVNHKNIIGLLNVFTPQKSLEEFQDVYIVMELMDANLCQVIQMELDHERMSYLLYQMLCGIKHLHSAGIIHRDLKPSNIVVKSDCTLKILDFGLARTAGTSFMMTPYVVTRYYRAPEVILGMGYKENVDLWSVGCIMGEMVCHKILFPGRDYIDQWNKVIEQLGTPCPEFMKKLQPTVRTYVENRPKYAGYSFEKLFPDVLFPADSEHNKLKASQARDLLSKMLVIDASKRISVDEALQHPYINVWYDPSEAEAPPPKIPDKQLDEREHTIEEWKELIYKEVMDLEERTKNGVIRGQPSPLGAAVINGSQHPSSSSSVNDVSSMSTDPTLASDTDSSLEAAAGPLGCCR
PKBb, sequence (P31751 whole entry): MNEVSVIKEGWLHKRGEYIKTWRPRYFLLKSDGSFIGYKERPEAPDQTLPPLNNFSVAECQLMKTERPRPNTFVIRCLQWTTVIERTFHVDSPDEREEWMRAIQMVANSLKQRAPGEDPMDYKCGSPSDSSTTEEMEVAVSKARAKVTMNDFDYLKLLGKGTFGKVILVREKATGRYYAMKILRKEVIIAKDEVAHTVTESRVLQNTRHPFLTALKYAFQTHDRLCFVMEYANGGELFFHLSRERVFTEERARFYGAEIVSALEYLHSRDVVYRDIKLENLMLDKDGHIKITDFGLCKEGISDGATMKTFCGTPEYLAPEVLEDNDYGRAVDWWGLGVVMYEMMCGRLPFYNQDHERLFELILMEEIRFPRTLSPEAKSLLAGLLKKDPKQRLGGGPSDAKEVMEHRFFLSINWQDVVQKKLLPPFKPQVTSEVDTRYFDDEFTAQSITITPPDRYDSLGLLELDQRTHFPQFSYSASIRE
SmMLCK, sequence (Q15746 923-1914): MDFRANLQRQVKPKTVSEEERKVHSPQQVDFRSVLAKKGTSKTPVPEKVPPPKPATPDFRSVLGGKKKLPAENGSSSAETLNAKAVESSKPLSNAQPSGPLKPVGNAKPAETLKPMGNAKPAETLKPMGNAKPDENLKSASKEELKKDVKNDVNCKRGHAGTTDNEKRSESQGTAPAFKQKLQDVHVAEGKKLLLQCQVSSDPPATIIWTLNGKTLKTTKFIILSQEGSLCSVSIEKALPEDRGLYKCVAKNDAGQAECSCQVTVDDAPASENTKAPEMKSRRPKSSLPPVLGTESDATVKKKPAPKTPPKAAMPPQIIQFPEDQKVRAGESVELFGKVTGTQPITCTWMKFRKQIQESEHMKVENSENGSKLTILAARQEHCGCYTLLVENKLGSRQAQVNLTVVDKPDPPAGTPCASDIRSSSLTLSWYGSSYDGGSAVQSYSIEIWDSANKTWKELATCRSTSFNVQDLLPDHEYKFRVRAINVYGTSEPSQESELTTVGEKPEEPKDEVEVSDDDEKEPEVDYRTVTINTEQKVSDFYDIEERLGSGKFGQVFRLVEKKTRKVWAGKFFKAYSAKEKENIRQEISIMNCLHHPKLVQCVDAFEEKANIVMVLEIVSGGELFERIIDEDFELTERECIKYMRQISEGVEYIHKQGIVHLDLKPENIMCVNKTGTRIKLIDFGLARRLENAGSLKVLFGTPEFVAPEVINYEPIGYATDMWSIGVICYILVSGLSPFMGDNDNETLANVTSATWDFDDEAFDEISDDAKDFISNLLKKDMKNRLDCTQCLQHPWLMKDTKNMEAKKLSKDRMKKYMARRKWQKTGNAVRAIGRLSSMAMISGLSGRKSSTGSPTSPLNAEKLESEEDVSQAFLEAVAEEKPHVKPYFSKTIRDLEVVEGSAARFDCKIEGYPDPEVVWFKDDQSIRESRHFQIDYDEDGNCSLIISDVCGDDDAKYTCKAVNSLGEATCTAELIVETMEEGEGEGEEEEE
S6K1, sequence (P23443 whole entry, species assumed): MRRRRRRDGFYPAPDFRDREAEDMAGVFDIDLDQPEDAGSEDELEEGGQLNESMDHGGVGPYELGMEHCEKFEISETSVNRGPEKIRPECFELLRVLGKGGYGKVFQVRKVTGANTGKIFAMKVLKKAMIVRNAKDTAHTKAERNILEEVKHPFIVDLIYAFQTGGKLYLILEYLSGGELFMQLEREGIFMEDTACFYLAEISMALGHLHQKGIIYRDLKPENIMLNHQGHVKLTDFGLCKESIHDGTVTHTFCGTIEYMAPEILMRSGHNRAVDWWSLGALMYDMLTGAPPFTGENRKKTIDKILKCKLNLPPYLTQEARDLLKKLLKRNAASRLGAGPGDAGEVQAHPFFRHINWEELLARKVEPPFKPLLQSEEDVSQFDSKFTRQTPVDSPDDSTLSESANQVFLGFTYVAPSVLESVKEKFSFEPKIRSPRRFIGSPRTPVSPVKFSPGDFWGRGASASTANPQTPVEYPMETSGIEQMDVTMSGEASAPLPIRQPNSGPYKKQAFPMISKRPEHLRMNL

CC(=O)Nc1ccccc1C(=O)Nc1nc2ccc(O)cc2s1 [Compound 08-39]
residual kinase activity, JNK1 (JNK1; [1]): 92
residual kinase activity, PDK1 (PDK1; [1]): 66
residual kinase activity, PKBb (PKBb): 4
residual kinase activity, S6K1 (S6K1; [1]): 12
residual kinase activity, PRK2 (PRK2; [1]): 42

COc1ccc2sc(NC(=O)c3ccc(NC(C)=O)cc3)nc2c1 [MS:LY-2-77]
residual kinase activity, JNK1 (JNK1; [1]): 104
residual kinase activity, PDK1 (PDK1; [1]): 103
residual kinase activity, PKBb (PKBb): 44
residual kinase activity, S6K1 (S6K1; [1]): 94
residual kinase activity, PRK2 (PRK2; [1]): 92

CC(=O)NC(C)C(=O)Nc1nc2ccc(C(F)(F)F)cc2s1 (stereo not shown) [Compound 03-80]
residual kinase activity, JNK1 (JNK1; [1]): 86
residual kinase activity, PDK1 (PDK1; [1]): 86
residual kinase activity, PKBb (PKBb): 93
residual kinase activity, S6K1 (S6K1; [1]): 97
residual kinase activity, PRK2 (PRK2; [1]): 79

CC(=O)Nc1cccc(C(=O)Nc2nc3cc(O)ccc3s2)c1 [MS:LY-2-89]
residual kinase activity, JNK1 (JNK1; [1]): 68
residual kinase activity, PDK1 (PDK1; [1]): 44
residual kinase activity, PKBb (PKBb): 7
residual kinase activity, S6K1 (S6K1; [1]): 14
residual kinase activity, PRK2 (PRK2; [1]): 44

COc1ccc2sc(NC(=O)c3cccc(NC(C)=O)c3)nc2c1 [MS:LY-2-85]
residual kinase activity, JNK1 (JNK1; [1]): 97
residual kinase activity, PDK1 (PDK1; [1]): 80
residual kinase activity, PKBb (PKBb): 22
residual kinase activity, S6K1 (S6K1; [1]): 50
residual kinase activity, PRK2 (PRK2; [1]): 66

CC(=O)Nc1ccc(C(=O)Nc2nc3cc(O)ccc3s2)cc1 [MS:LY-2-87]
residual kinase activity, JNK1 (JNK1; [1]): 105
residual kinase activity, PDK1 (PDK1; [1]): 69
residual kinase activity, PKBb (PKBb): 18
residual kinase activity, S6K1 (S6K1; [1]): 39
residual kinase activity, PRK2 (PRK2; [1]): 67

O=C(Nc1nc2cc(O)ccc2s1)c1ccccc1 [Compound 03-102]
residual kinase activity, JNK1 (JNK1; [1]): 83
residual kinase activity, PDK1 (PDK1; [1]): 74
residual kinase activity, S6K1 (S6K1; [1]): 42
residual kinase activity, PRK2 (PRK2; [1]): 68
residual kinase activity, MSK1 (MSK1; [1]): 72
residual kinase activity, SmMLCK (SmMLCK; [1]): 15
residual kinase activity, PAK4 (PAK4; [1]): 67
residual kinase activity, MST2 (MST2; [1]): 46
residual kinase activity, MLK3 (MLK3; [1]): 15
residual kinase activity, TAK1 (TAK1; [1]): 31
residual kinase activity, IRAK4 (IRAK4; [1]): 34
residual kinase activity, SYK (SYK; [1]): 80
residual kinase activity, HER4 (HER4; [1]): 45
residual kinase activity, IGF-1R (IGF-1R; [1]): 52

COc1cccc(NC(=O)Nc2nc3cc(O)ccc3s2)c1 [Compound 13-62]
residual kinase activity, JNK1 (JNK1; [2]): 114
residual kinase activity, PDK1 (PDK1; [2]): 77
residual kinase activity, S6K1 (S6K1; [2]): 22
residual kinase activity, PRK2 (PRK2; [2]): 40
residual kinase activity, MSK1 (MSK1; [2]): 41
residual kinase activity, SmMLCK (SmMLCK; [2]): 5
residual kinase activity, PAK4 (PAK4; [2]): 22
residual kinase activity, MST2 (MST2; [2]): 3
residual kinase activity, MLK3 (MLK3; [2]): 13
residual kinase activity, TAK1 (TAK1; [2]): 11
residual kinase activity, IRAK4 (IRAK4; [2]): 17
residual kinase activity, SYK (SYK; [2]): 59
residual kinase activity, HER4 (HER4; [2]): 13
residual kinase activity, IGF-1R (IGF-1R; [2]): 62

COC(=O)c1cccc(C(=O)Nc2nc3ccc(C(F)(F)F)cc3s2)c1 [Compound 03-105, Methyl 3-((6-(trifluoromethyl)benzo[d]thiazol-2-yl)carbamoyl)benzoate]
remaining activity at 100 µM (JNK1): 84%
remaining activity at 100 µM (PDK1): 87%
remaining activity at 100 µM (S6K1): 78%
remaining activity at 100 µM (PRK2): 109%
remaining activity at 100 µM (MSK1): 84%
remaining activity at 100 µM (SmMLCK; [1]): 63%
remaining activity at 100 µM (PAK4): 89%
remaining activity at 100 µM (MST2): 99%
remaining activity at 100 µM (MLK3): 54%
remaining activity at 100 µM (TAK1): 76%
remaining activity at 100 µM (IRAK4): 78%
remaining activity at 100 µM (SYK): 102%
remaining activity at 100 µM (HER4): 122%
remaining activity at 100 µM (IGF-1R): 101%

CC(=O)Nc1cccc(C(=O)Nc2nc3ccc(O)cc3s2)c1 [Compound 03-58]
residual kinase activity, JNK1 (JNK1; [1]): 80
residual kinase activity, PDK1 (PDK1; [1]): 96
residual kinase activity, PKBb (PKBb): 80
residual kinase activity, S6K1 (S6K1; [1]): 9
residual kinase activity, PRK2 (PRK2; [1]): 36

CC(=O)Nc1nc2ccc([N+](=O)[O-])cc2s1 [Compound 13-10]
remaining activity at 100 µM (JNK1; [1]): 82%
remaining activity at 100 µM (PDK1; [1]): 93%
remaining activity at 100 µM (S6K1; [1]): 65%
remaining activity at 100 µM (PRK2; [1]): 93%
remaining activity at 100 µM (MSK1; [1]): 92%
remaining activity at 100 µM (SmMLCK; [1]): 58%
remaining activity at 100 µM (PAK4; [1]): 86%
remaining activity at 100 µM (MST2; [1]): 97%
remaining activity at 100 µM (MLK3; [1]): 54%
remaining activity at 100 µM (TAK1; [1]): 58%
remaining activity at 100 µM (IRAK4; [1]): 8%
remaining activity at 100 µM (SYK; [1]): 97%
remaining activity at 100 µM (HER4; [1]): 81%
remaining activity at 100 µM (IGF-1R; [1]): 91%

From patent US10231954B2, “Neurodegenerative therapies” (LYTIX BIOPHARMA AS, priority 2014, dated 2019)
